How the values were obtained:
[1] = system: SGC-7901; assay: In vitro inhibitory concentration required against human gastric adenocarcinoma SGC-7901 cell line; assay type: functional, cell-based
[2] = system: HT-29; assay: In vitro inhibitory concentration required against human colorectal adenocarcinoma HT-29 cell line; assay type: functional, cell-based

Structure (SMILES) | IC50 [1] | IC50 [2]
CC(=O)Oc1cc(O)c2c(=O)cc(-c3ccccc3)oc2c1 | 3.6 µM | 3800 nM
O=c1cc(-c2ccccc2)oc2cc(O)cc(O)c12 [CHRYSIN] | 5.8 µM | 3100 nM
O=c1cc(-c2ccccc2)oc2c(I)c(O)c(I)c(O)c12 | 2.9 µM | 4400 nM
O=c1cc(-c2ccccc2)oc2c(Br)c(O)c(Br)c(O)c12 | 5.1 µM | 4000 nM
CC(=O)Oc1c(C(F)(F)F)c(O)c2c(=O)cc(-c3ccccc3)oc2c1C(F)(F)F | – | 2900 nM
CC(=O)Oc1c(I)c(O)c2c(=O)cc(-c3ccccc3)oc2c1I | 4.2 µM | 3000 nM

Now those with a lower IC50 [2], led by results:

IC50 [1] | IC50 [2] | Structure (SMILES)
2.2 µM | 2600 nM | COc1cc(OC)c2c(=O)cc(-c3ccccc3)oc2c1I
4.5 µM | 2600 nM | CC(=O)Oc1cc(OC(C)=O)c2c(=O)cc(-c3ccccc3)oc2c1 [CHRYSIN DIACETATE]
6.4 µM | 2300 nM | COc1c([N+](=O)[O-])c(O)c2c(=O)cc(-c3ccccc3)oc2c1I
5.9 µM | 2300 nM | COc1cc(OC)c2c(=O)cc(-c3ccccc3)oc2c1C(F)(F)F
2.8 µM | 2300 nM | O=c1cc(-c2ccccc2)oc2c([N+](=O)[O-])c(O)cc(O)c12
3.7 µM | 2000 nM | COc1cc(OC)c2c(=O)cc(-c3ccccc3)oc2c1 [CHRYSIN DIMETHYL ETHER]
2.5 µM | 1900 nM | COc1cc(O)c2c(=O)cc(-c3ccccc3)oc2c1Br

Reference: ChEMBL document CHEMBL1136624, “Synthesis and anticancer effect of chrysin derivatives” (Bioorg Med Chem Lett, 2003)
